{"source": "patent US20090018134A1", "about": "“Compounds - 945” (AstraZeneca AB, priority 2007, published 2009)"}
{"molecular_target": "T1, mTOR (Homo sapiens, UniProt P42345)", "T1 construct": "FLAG; made in house", "T1 sequence (P42345 1362-2549)": "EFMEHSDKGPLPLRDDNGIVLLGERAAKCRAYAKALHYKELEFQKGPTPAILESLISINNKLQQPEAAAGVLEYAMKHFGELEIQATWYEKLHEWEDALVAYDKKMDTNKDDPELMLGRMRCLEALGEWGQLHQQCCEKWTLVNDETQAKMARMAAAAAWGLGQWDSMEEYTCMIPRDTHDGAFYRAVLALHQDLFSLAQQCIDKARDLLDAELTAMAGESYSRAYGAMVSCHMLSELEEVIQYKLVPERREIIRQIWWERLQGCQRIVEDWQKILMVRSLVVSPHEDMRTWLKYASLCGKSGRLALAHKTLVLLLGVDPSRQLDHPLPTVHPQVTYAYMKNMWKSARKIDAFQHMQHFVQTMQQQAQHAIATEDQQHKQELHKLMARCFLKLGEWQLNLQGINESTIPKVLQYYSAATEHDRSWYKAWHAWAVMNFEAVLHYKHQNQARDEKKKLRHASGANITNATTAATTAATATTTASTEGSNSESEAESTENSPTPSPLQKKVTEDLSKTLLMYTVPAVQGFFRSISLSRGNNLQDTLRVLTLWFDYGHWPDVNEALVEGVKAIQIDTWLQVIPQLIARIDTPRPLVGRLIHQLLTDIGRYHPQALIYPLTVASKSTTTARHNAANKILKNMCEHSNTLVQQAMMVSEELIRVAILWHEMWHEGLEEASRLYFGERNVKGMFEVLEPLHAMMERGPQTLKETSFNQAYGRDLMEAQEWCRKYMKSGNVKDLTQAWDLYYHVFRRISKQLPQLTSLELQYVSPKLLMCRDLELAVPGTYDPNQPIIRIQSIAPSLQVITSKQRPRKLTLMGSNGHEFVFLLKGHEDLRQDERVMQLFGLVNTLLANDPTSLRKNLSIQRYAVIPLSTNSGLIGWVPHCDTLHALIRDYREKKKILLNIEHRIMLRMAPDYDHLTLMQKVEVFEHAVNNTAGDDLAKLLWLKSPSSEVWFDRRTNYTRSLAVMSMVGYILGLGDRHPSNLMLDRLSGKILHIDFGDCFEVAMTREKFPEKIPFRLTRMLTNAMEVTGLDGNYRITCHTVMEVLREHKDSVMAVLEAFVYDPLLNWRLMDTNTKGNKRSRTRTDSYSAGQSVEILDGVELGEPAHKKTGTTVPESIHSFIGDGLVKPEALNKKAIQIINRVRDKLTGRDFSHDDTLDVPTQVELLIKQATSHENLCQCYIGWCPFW", "assay": "In Vitro mTOR Kinase Assay (Echo), Test (a)(ii)", "format": "biochemical", "settings": "table of enzyme assay Test (a)(ii); read-out: Test (a)(ii) IC50", "outline": "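Enzyme: HEK293-expressed, FLAG-purified mTOR C-terminal fragment (aa 1362-2549). Rxn 2 h RT with biotinylated peptide, stopped with EDTA 50 mM/BSA/Tris pH 7.4. Detection: T389 phospho-antibody AlphaScreen, 680 nm excitation. IC50.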", "units": {"IC50": "nM"}}
{"smiles": "C[C@H]1COCCN1c1cc(C2(S(=O)(=O)CCCO)CC2)nc(-c2ccc(NC(=O)NC3(CO)CC3)cc2)n1", "note": "[Example 36a, 3-[1-(hydroxymethyl)cyclopro-pyl]-1-[4-[4-[1-(3-hydroxypropylsulfonyl)cyclopropyl]-6-[(3S)-3-methylmorpholin-4-yl]pyrimidin-2-yl]phenyl]urea]", "IC50": 142}
{"smiles": "C[C@H]1COCCN1c1cc(C2(S(=O)(=O)c3ccc(F)cc3)CC2)nc(-c2ccc(NC(=O)NCc3ncc[nH]3)cc2)n1", "note": "[Example 36aa, 1-[4-[4-[1-(4-fluorophenyl)sulfonylcyclopropyl]-6-[(3S)-3-methylmorpholin-4-yl]pyrimidin-2-yl]phenyl]-3-(1H-imidazol-2-ylmethyl)urea]", "IC50": 74.9}
{"smiles": "C[C@H]1COCCN1c1cc(C2(S(=O)(=O)c3ccccn3)CCCC2)nc(-c2ccc(NC(=O)NC3CC3)cc2)n1", "note": "[Example 36ab, 3-cyclopropyl-1-[4-[4-[(3S)-3-methylmorpholin-4-yl]-6-(1-pyridin-2-ylsulfonylcyclopentyl)pyrimidin-2-yl]phenyl]urea]", "IC50": 11}
{"smiles": "C[C@H]1COCCN1c1cc(C2(S(=O)(=O)c3ccccn3)CCCC2)nc(-c2ccc(NC(=O)NCCO)cc2)n1", "note": "[Example 36ac, 3-(2-hydroxyethyl)-1-[4-[4-[(3S)-3-methylmorpholin-4-yl]-6-(1-pyridin-2-ylsulfonylcyclopentyl)pyrimidin-2-yl]phenyl]urea]", "IC50": 4.41}
{"smiles": "C[C@H]1COCCN1c1cc(C2(S(=O)(=O)c3ccccn3)CCCC2)nc(-c2ccc(NC(=O)NCCC#N)cc2)n1", "note": "[Example 36ad, 3-(2-cyanoethyl)-1-[4-[4-[(3S)-3-methylmorpholin-4-yl]-6-(1-pyridin-2-ylsulfonylcyclopentyl)pyrimidin-2-yl]phenyl]urea]", "IC50": 32.3}
{"smiles": "C[C@H]1COCCN1c1cc(C2(S(=O)(=O)c3ccccn3)CCCC2)nc(-c2ccc(NC(=O)NCCCO)cc2)n1", "note": "[Example 36ae, 3-(3-hydroxypropyl)-1-[4-[4-[(3S)-3-methylmorpholin-4-yl]-6-(1-pyridin-2-ylsulfonylcyclopentyl)pyrimidin-2-yl]phenyl]urea]", "IC50": 15.1}
{"smiles": "C[C@H]1COCCN1c1cc(C2(S(=O)(=O)c3ccccn3)CCC2)nc(-c2ccc(NC(=O)NC3CC3)cc2)n1", "note": "[Example 36af, 3-cyclopropyl-1-[4-[4-[(3S)-3-methylmorpholin-4-yl]-6-(1-pyridin-2-ylsulfonylcyclobutyl)pyrimidin-2-yl]phenyl]urea]", "IC50": 2.75}
{"smiles": "CNC(=O)Nc1ccc(-c2nc(N3CCOC[C@@H]3C)cc(C3(S(=O)(=O)c4ccccn4)CCC3)n2)cc1", "note": "[Example 36ag, 3-methyl-1-[4-[4-[(3S)-3-methylmorpholin-4-yl]-6-(1-pyridin-2-ylsulfonylcyclobutyl)pyrimidin-2-yl]phenyl]urea]", "IC50": 1.3}
{"smiles": "C[C@H]1COCCN1c1cc(C2(S(=O)(=O)c3ccccn3)CCC2)nc(-c2ccc(NC(=O)NCCO)cc2)n1", "note": "[Example 36ah, 3-(2-hydroxyethyl)-1-[4-[4-[(3S)-3-methylmorpholin-4-yl]-6-(1-pyridin-2-ylsulfonylcyclobutyl)pyrimidin-2-yl]phenyl]urea]", "IC50": 2.47}
{"smiles": "C[C@H]1COCCN1c1cc(C2(S(=O)(=O)c3ccccn3)CCC2)nc(-c2ccc(NC(=O)NCCC#N)cc2)n1", "note": "[Example 36ai, 3-(2-cyanoethyl)-1-[4-[4-[(3S)-3-methylmorpholin-4-yl]-6-(1-pyridin-2-ylsulfonylcyclobutyl)pyrimidin-2-yl)phenyl]urea]", "IC50": 5.61}
{"smiles": "C[C@H]1COCCN1c1cc(C2(S(=O)(=O)c3ccccn3)CCC2)nc(-c2ccc(NC(=O)NCc3ncc[nH]3)cc2)n1", "note": "[Example 36ak, 3-(1H-imidazol-2-ylmethyl)-1-[4-[4-[(3S)-3-methylmorpholin-4-yl]-6-(1-pyridin-2-ylsulfonylcyclobutyl)pyrimidin-2-yl]phenyl]urea]", "IC50": 2.45}
{"smiles": "O=C(Nc1ccc(-c2nc(N3CCOCC3)cc(C3(S(=O)(=O)c4ccc(F)cc4)CC3)n2)cc1)Nc1ncns1", "note": "[Example 36an, 1-[4-[4-[1-(4-fluorophenyl)sulfonylcyclopropyl]-6-morpholin-4-ylpyrimidin-2-yl]phenyl]-3-(1,2,4-thiadiazol-5-yl)urea]", "IC50": 10.4}
{"smiles": "CCNC(=O)Nc1ccc(-c2nc(N3CCOCC3)cc(C3(S(=O)(=O)c4ccc(F)cc4)CC3)n2)cc1", "note": "[Example 36ao, 1-ethyl-3-[4-[4-[1-(4-fluorophenyl)sulfonylcyclopropyl]-6-morpholin-4-ylpyrimidin-2-yl]phenyl]urea]", "IC50": 14}
{"smiles": "CNC(=O)Nc1ccc(-c2nc(N3CCOCC3)cc(C3(S(=O)(=O)c4ccc(F)cc4)CC3)n2)cc1", "note": "[Example 36ap, 3-[4-[4-[1-(4-fluorophenyl)sulfonylcyclopropyl]-6-morpholin-4-ylpyrimidin-2-yl]phenyl]-1-methylurea]", "IC50": 15.6}
{"smiles": "Cn1cc(NC(=O)Nc2ccc(-c3nc(N4CCOCC4)cc(C4(S(=O)(=O)c5ccc(F)cc5)CC4)n3)cc2)cn1", "note": "[Example 36aq, 3-[4-[4-[1-(4-fluorophenyl)sulfonylcyclopropyl]-6-morpholin-4-ylpyrimidin-2-yl]phenyl]-1-(1-methylpyrazol-4-yl)urea]", "IC50": 15.7}
{"smiles": "O=C(NCCO)Nc1ccc(-c2nc(N3CCOCC3)cc(C3(S(=O)(=O)c4ccncc4)CC3)n2)cc1", "note": "[Example 36ar, 3-(2-hydroxyethyl)-1-[4-[4-morpholin-4-yl-6-(1-pyridin-4-ylsulfonylcyclopropyl)pyrimidin-2-yl]phenyl]urea]", "IC50": 9.45}
{"smiles": "Cn1cc(NC(=O)Nc2ccc(-c3nc(N4CCOCC4)cc(C4(S(=O)(=O)c5ccncc5)CC4)n3)cc2)cn1", "note": "[Example 36as, 1-(1-methylpyrazol-4-yl)-3-[4-[4-morpholin-4-yl-6-(1-pyridin-4-ylsulfonylcyclopropyl)pyrimidin-2-yl]phenyl]urea]", "IC50": 9.11}
{"smiles": "CNC(=O)Nc1ccc(-c2nc(N3CCOCC3)cc(C3(S(=O)(=O)c4ccncc4)CC3)n2)cc1", "note": "[Example 36at, 1-methyl-3-[4-[4-morpholin-4-yl-6-(1-pyridin-4-ylsulfonylcyclopropyl)pyrimidin-2-yl]phenyl]urea]", "IC50": 6.39}
{"smiles": "CCNC(=O)Nc1ccc(-c2nc(N3CCOCC3)cc(C3(S(=O)(=O)c4ccncc4)CC3)n2)cc1", "note": "[Example 36au, 1-ethyl-3-[4-[4-morpholin-4-yl-6-(1-pyridin-4-ylsulfonylcyclopropyl)pyrimidin-2-yl]phenyl]urea]", "IC50": 12.1}
{"smiles": "O=C(Nc1ccc(-c2nc(N3CCOCC3)cc(C3(S(=O)(=O)c4ccncc4)CC3)n2)cc1)NC1CC1", "note": "[Example 36av, 3-cyclopropyl-1-[4-[4-morpholin-4-yl-6-(1-pyridin-4-ylsulfonylcyclopropyl)pyrimidin-2-yl]phenyl]urea]", "IC50": 9.95}
{"smiles": "N#CCCNC(=O)Nc1ccc(-c2nc(N3CCOCC3)cc(C3(S(=O)(=O)c4ccncc4)CC3)n2)cc1", "note": "[Example 36aw, 3-(2-cyanoethyl)-1-[4-[4-morpholin-4-yl-6-(1-pyridin-4-ylsulfonylcyclopropyl)pyrimidin-2-yl]phenyl]urea]", "IC50": 16.4}
{"smiles": "O=C(NCCCO)Nc1ccc(-c2nc(N3CCOCC3)cc(C3(S(=O)(=O)c4ccncc4)CC3)n2)cc1", "note": "[Example 36ax, 3-(3-hydroxypropyl)-1-[4-[4-morpholin-4-yl-6-(1-pyridin-4-ylsulfonylcyclopropyl)pyrimidin-2-yl]phenyl]urea]", "IC50": 21.1}
{"smiles": "C[C@H]1COCCN1c1cc(C2(S(C)(=O)=O)CC2)nc(-c2ccc(NC(=O)Nc3nccs3)cc2)n1", "note": "[Example 36ay, 1-[4-[4-[(3S)-3-methylmorpholin-4-yl]-6-(1-methylsulfonylcyclopropyl)pyri-midin-2-yl]phenyl]-3-(1,3-thiazol-2-yl)urea]", "IC50": 1.17}
{"smiles": "C[C@H]1COCCN1c1cc(C2(S(=O)(=O)CCCO)CC2)nc(-c2ccc(NC(=O)Nc3ncns3)cc2)n1", "note": "[Example 36b, 1-[4-[4-[1-(3-hydroxypropylsulfonyl)cyclopro-pyl]-6-[(3S)-3-methylmorpholin-4-yl]pyrimidin-2-yl]phenyl]-3-(1,2,4-thiadiazol-5-yl)urea]", "IC50": 1.79}
{"smiles": "C[C@H]1COCCN1c1cc(C2(S(=O)(=O)c3ccccc3)CC2)nc(-c2ccc(NC(=O)NC3CCC3)cc2)n1", "note": "[Example 36bd, 1-[4-[4-[1-(benzenesulfonyl)cyclopropyl]-6-[(3S)-3-methylmorpholin-4-yl]pyrimidin-2-yl]phenyl]-3-cyclobutylurea]", "IC50": 2.58}
{"smiles": "C[C@H]1COCCN1c1cc(C2(S(=O)(=O)c3ccccc3)CC2)nc(-c2ccc(NC(=O)NCC(O)C(F)(F)F)cc2)n1", "note": "(stereo partly drawn) [Example 36be, 1-[4-[4-[1-(benzenesulfonyl)cyclopropyl]-6-[(3S)-3-methylmorpholin-4-yl]pyrimidin-2-yl]phenyl]-3-(3,3,3-trifluoro-2-hydroxypropyl)urea]", "IC50": 3.76}
{"smiles": "CC(C)NC(=O)Nc1ccc(-c2nc(N3CCOC[C@@H]3C)cc(C3(S(=O)(=O)c4ccccc4)CC3)n2)cc1", "note": "[Example 36bf, 1-[4-[4-[1-(benzenesulfonyl)cyclopropyl]-6-[(3S)-3-methylmorpholin-4-yl]pyrimidin-2-yl]phenyl]-3-propan-2-ylurea]", "IC50": 4.57}
{"smiles": "CCCNC(=O)Nc1ccc(-c2nc(N3CCOC[C@@H]3C)cc(C3(S(=O)(=O)c4ccccc4)CC3)n2)cc1", "note": "[Example 36bi, 3-[4-[4-[1-(benzenesulfonyl)cyclopropyl]-6-[(3S)-3-methylmorpholin-4-yl]pyrimidin-2-yl]phenyl]-1-propylurea]", "IC50": 2.31}
{"smiles": "C[C@H]1COCCN1c1cc(C2(S(=O)(=O)c3ccccc3)CC2)nc(-c2ccc(NC(=O)NC(C)(C)CO)cc2)n1", "note": "[Example 36bk, 1-[4-[4-[1-(benzenesulfonyl)cyclopropyl]-6-[(3S)-3-methylmorpholin-4-yl]pyrimidin-2-yl]phenyl]-3-(1-hydroxy-2-methylpropan-2-yl)urea]", "IC50": 4.33}
{"smiles": "C[C@H]1COCCN1c1cc(C2(S(=O)(=O)c3ccccc3)CC2)nc(-c2ccc(NC(=O)NCCC#N)cc2)n1", "note": "[Example 36bm, 1-[4-[4-[1-(benzenesulfonyl)cyclopropyl]-6-[(3S)-3-methylmorpholin-4-yl]pyrimidin-2-yl]phenyl]-3-(2-cyanoethyl)urea]", "IC50": 1.93}
